According to PMC6586795 (Nature Communications, 2019):

Biological target: T1, Drosophila melanogaster dopamine transporter (dDAT) (Drosophila melanogaster, UniProt Q7K4Y6)
T1 construct: gene DAT; Full-length wild-type dDAT with a C-terminal thrombin site and 8 histidine-tag
Experiment: [3H]nisoxetine saturation binding, scintillation proximity assay on purified dDAT

T1 sequence (Q7K4Y6 whole entry): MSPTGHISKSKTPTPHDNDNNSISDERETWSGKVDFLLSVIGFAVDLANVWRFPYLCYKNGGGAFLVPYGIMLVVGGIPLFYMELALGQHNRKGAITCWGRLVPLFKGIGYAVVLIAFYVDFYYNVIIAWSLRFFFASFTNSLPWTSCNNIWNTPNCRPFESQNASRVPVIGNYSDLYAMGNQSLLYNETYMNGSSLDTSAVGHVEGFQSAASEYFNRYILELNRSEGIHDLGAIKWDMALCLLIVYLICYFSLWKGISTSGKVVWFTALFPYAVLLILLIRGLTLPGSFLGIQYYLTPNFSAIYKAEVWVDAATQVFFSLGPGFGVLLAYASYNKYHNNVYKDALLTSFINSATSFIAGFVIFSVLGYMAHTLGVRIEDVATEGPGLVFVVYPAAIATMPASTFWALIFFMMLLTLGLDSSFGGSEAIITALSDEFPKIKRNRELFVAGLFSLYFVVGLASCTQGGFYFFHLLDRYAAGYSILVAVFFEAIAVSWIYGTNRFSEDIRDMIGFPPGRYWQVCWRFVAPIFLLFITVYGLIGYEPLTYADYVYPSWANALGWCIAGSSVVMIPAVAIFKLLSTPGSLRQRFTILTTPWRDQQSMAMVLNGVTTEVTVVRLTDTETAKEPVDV

Compound `CNCCC(Oc1ccccc1OC)c1ccccc1` (stereo not shown) [nisoxetine] has a Kd of 0.08 ± 0.006 µM.
